Assay [1] deals with T1, Human neutrophil elastase (Homo sapiens, UniProt P08246).
T1 construct: purchased Elastin Products Company, Inc. (EPC, Owensville, USA) SE563
T1 sequence (P08246 30-267): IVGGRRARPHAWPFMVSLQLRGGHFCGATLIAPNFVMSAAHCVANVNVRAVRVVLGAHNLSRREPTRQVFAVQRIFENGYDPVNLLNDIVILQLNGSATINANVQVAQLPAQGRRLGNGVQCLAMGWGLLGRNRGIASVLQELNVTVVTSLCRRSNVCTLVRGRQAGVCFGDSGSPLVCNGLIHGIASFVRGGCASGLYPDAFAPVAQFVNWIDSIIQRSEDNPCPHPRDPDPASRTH
The assay is described as follows: HNE inhibitory activity in vitro (fluorescence-quenched substrate). In kind it is biochemical.

Another assay has as its target human kallikrein 7 (Homo sapiens, UniProt P49862). The assay is described as follows: Kallikrein-7 inhibitory activity in vitro (fluorescence-quenched substrate). In kind it is biochemical.
The next assay has as its system Crl:NMRI mice. The assay is described as follows: Anti-inflammatory activity in murine model of allergic contact dermatitis (ACD), oxazolone. Type of assay: in vivo. On the procedure:
Method: Crl:NMRI mice were sensitized on the shaved abdomen with 50 μl of 2% oxazolone on day 1 and challenged with 10 μl oxazolone on the inner surface of the right ear on day 8. The unchallenged left ears served as normal controls and dermatitis was evaluated from the difference in auricular weight (taken as a measure of inflammatory swelling) on day 9. The animals were treated topically with 10 μl test compound or the solvent only 30 min after the challenge. The efficacy of the treatment was calculated as the percentage inhibition of inflammatory auricular swelling relative to animals treated with the vehicle alone.

The next assay concerns human chymotrypsin. The assay is described as follows: Inhibition of human chymotrypsin. Type of assay: biochemical.

Where two headings read alike, the source gives them in different places. Bounds are passed on as bounds.

human kallikrein 7, sequence (P49862 30-253): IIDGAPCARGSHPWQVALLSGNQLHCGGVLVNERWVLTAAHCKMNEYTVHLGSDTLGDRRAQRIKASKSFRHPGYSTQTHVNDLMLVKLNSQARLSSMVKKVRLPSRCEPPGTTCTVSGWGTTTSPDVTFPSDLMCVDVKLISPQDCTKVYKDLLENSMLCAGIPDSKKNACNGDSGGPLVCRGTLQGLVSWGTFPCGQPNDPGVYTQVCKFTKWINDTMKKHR

`CCC(C)C1NC(=O)C(Cc2ccc(OCc3cc(C)n(C)n3)cc2)N(C)C(=O)C(C(C)CC)N2C(=O)C(CCC2O)NC(=O)C(CC(C)C)NC(=O)C(NC(=O)C(CCC(N)=O)NC(=O)C(C)C)C(C)OC1=O` (stereo not shown) [example 43]: the IC50 in assay [1] (Table 11, read-out: human neutrophile elastase IC 50) stood at 1 nM; at human kallikrein 7 (Table 11, read-out: hKallikrein7 IC 50), 0.2 nM. Also, the “% Inhibition of inflammatory swelling” value with Crl:NMRI mice (Table 14, concentration of test compound 10 mM) amounted to 42%; in the assay with Crl:NMRI mice (Table 14, concentration of test compound 30 mM), 55%.

In the case of `CC(C)CC(=O)N[C@@H](CCC(N)=O)C(=O)N[C@@H]1C(=O)N[C@@H](CC(C)C)C(=O)NC2CC[C@H](O)N(C2=O)[C@@H](Cc2ccccc2)C(=O)N(C)[C@@H](Cc2ccc(O)cc2)C(=O)N[C@@H](C(C)C)C(=O)O[C@@H]1C` (stereo partly shown) [formula VIII], the IC50 in the assay with human chymotrypsin is roughly 4 nM; in assay [1] (read-out: IC50 human neutrophile elastase), roughly 2.5 nM; on human kallikrein 7 (read-out: IC50 for human kallikrein 7), less than 3 nM.

The record behind these values is patent US9127044B2, “Cyclic depsipeptides” (NOVARTIS AG, priority 2007, dated 2015).
